In patent publication US12559496B2, “Imidazopyrimidines as modulators of IL-17” (Janssen Pharmaceutica NV, priority 2020, dated 2026):

Legend:
[1] = tested on: IL-17A-induced G-CSF production in human normal keratinocytes (NHK); test: NHK Assay: IL-17A-induced G-CSF production in human normal keratinocytes; format: cell-based; settings: IL-17A 5 ng/mL, 24 h, 5% FBS, simple average if tested more than once
Procedure: IL-17A acts directly on keratinocytes through binding to dimeric receptor IL-17RA/RC and drives the production of a number of inflammatory mediators known to be elevated in psoriasis lesional tissue. IL-17A small molecule inhibitors that block the IL-17A to interact with IL-17R would inhibit the IL-17A signaling in its targeted cells such as keratinocytes. The compound functional activity is evaluated for its impact on IL-17A-induced G-CSF production in human normal keratinocytes (NHK).
Adult normal human keratinocytes are cultured in keratinocyte growth medium (Lonza) in a flask till reaching ˜ 90% confluence, then cells are transferred to a 384-well plate at density of 3000-4000 cell/well. Recombinant human IL-17A (Gibco PHC9174) is pre-incubated with titrated compound or DMSO for 1 h at rt then added to the cell culture plate. The final concentration of IL-17A is 5 ng/mL and DMSO is 0.2%, in the culture containing 5% FBS. Cells are cultured/treated for 24 h at 37° C. Supernatants are collected and G-CSF production is measured through HTRF technology using Human G-CSF Kit (CisBio). G-CSF concentration was extrapolated from the standard curve and IC50 is determined using GraphPad Prism. Cell viability is also evaluated using CellTiter-Glo kit (Promega) and effect of compound on cell viability is compared to DMSO control.

[2] = target: IL-17A(FLAG-Tagged): IL-17RA(His-Tagged) (Homo sapiens, UniProt Q16552, K93Q); test: IL-17A(FLAG-Tagged): IL-17RA(His-Tagged) Binding Disruption Eu-HTRF Assay; settings: disruption of IL-17A/IL-17RA binding; simple average if tested more than once
UniProt Q16552, sequence (Q16552 with tags, fused parts or gaps K93Q): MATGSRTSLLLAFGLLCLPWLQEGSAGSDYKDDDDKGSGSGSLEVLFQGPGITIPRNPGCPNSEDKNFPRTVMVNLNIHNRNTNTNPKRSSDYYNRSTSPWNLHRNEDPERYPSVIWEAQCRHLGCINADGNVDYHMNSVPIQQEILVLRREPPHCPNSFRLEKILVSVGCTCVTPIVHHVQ
Excerpt: IL-17A(FLAG-Tagged): IL-17RA(His-Tagged) Binding Disruption Eu-HTRF Assay
An antibody directed against the FLAG tag of IL-17A (SEQ ID NO: 1) is labeled with the HTRF donor chromophore (Europium-cryptate). IL-17A is present as a dimer that is “locked into” this quaternary structure due to the formation of loop-spanning […] disulfide bridges. The construct of IL-17RA used in the assay excludes the […] portion of the receptor and is fused to a C-terminal 10×His tag (SEQ ID NO:2). An antibody directed against the His tag of the IL-17RA chimera is labeled with the HTRF acceptor chromophore (“D2”). The fluorescence-resonance energy transfer (FRET) depends on the vicinity of the donor chromophore to the acceptor, and interruption of the binding between the IL-17A and IL-17RA causes the reduction/loss of FRET. Therefore, this assay allows to evaluate the compound effect on the binding IL-17A and IL-17RA by monitoring the fluorescence intensity of donor vs acceptor. The assay is run as described below.
40 nL of 2-fold serial diluted compound solution for total 22 dilution points is added into each well of a 1536-well, white, low-volume, non-binding plate (Greiner #782904), then 2 μL of FLAG tagged IL-17A at 2× final concentration (2.5 nM) in solution of PBS+0.01% Triton-X100 is added to each well. The assay plate is briefly centrifuged then incubated for 1 h at rt. A mixed solution is prepared containing 2×5 nM 10HIS×IL-17RA, 2×2.5 nM Eu-anti-FLAG (CISBIO), 2×5 nM D2-anti-HIS (CISBIO) in PBS+0.01% Triton-X100+200 mM Potassium Fluoride (Sigma 60238) and 2 μL of mix is added to each well of the assay plate. The plate is briefly centrifuged then incubated for 2 h at rt. The HTRF intensities at the wavelength of donor (620 nm) and acceptor (665 nm) are measured using BMG Pherastar. The ratio between intensities at two wavelengths is calculated and plotted against the compound concentration and the data is fitted to a one-site competition model to yield IC50 of the compound.

Structure (SMILES) | IC50 [1] | IC50 [2] | IC50 ([1]; Homo sapiens, Keratinocyte)
O=C(CCC(F)(F)F)NC(c1ccn2cc([C@@H](NC(=O)c3cnn(CCC(F)(F)F)n3)C3CCC(F)(F)CC3)nc2n1)C1CC1 (single isomer, unassigned) [Example 41, N—((S)-(7-((R*)-Cyclopropyl(4,4,4-trifluorobutanamido)methyl)imidazo[1,2-a]pyrimidin-2-yl)(4,4-difluorocyclohexyl)methyl)-2-(3,3,3-trifluoropropyl)-2H-1,2,3-triazole-4-carboxamide] | 2500 nM | 2400 nM | 
O=C(CC1CC(F)(F)C1)N[C@H](c1ccn2cc([C@@H](NC(=O)c3conc3C3CC3)C3CCC(F)(F)CC3)nc2n1)C1CC1 [Example 27, 3-Cyclopropyl-N—((S)-(7-((S)-cyclopropyl(2-(3,3-difluorocyclobutyl)acetamido)methyl)imidazo[1,2-a]pyrimidin-2-yl)(4,4-difluorocyclohexyl)methyl)isoxazole-4-carboxamide] |  | 3800 nM | 2600 nM
CC(C)n1ncnc1C(=O)N[C@H](c1cn2ccc([C@H](NC(=O)CC(C)C(F)(F)F)C3CC3)nc2n1)C1CCC(F)(F)CC1 (single isomer, unassigned) [Example 17, N—((S)-(7-((R)-Cyclopropyl((S*)-4,4,4-trifluoro-3-methylbutanamido)methyl)imidazo[1,2-a]pyrimidin-2-yl)(4,4-difluorocyclohexyl)methyl)-1-isopropyl-1H-1,2,4-triazole-5-carboxamide] |  | 220 nM | 1100 nM
O=C(CC1CC(F)(F)C1)N[C@@H](c1ccn2cc([C@@H](NC(=O)c3nonc3C3CC3)C3CCC(F)(F)CC3)nc2n1)C1CC1 [Example 62, 4-Cyclopropyl-N—((S)-(7-((R)-cyclopropyl(2-(3,3-difluorocyclobutyl)acetamido)methyl)imidazo[1,2-a]pyrimidin-2-yl)(4,4-difluorocyclohexyl)methyl)-1,2,5-oxadiazole-3-carboxamide] |  | 91 nM | 120 nM
O=C(CC1CC(F)(F)C1)N[C@@H](c1ccn2cc([C@@H](NC(=O)c3nocc3CC(F)(F)F)C3CCC(F)(F)CC3)nc2n1)C1CC1 [Example 63, N—((S)-(7-((R)-Cyclopropyl(2-(3,3-difluorocyclobutyl)acetamido)methyl)imidazo[1,2-a]pyrimidin-2-yl)(4,4-difluorocyclohexyl)methyl)-4-(2,2,2-trifluoroethyl)isoxazole-3-carboxamide] |  | 220 nM | 640 nM
Cc1nonc1C(=O)N[C@H](c1cn2ccc([C@H](NC(=O)CC34CC(F)(C3)C4)C3CC3)nc2n1)C1CCC(F)(F)CC1 [Example 59, N—((S)-(7-((R)-Cyclopropyl(2-(3-fluorobicyclo[1.1.1]pentan-1-yl)acetamido)methyl)imidazo[1,2-a]pyrimidin-2-yl)(4,4-difluorocyclohexyl)methyl)-4-methyl-1,2,5-oxadiazole-3-carboxamide] |  | 390 nM | 990 nM
CC(C)n1nccc1C(=O)N[C@H](c1cn2ccc(C(NC(=O)CCC(F)(F)F)C3CC3)nc2n1)C1CCC(F)(F)CC1 (single isomer, unassigned) [Example 46, N—((S)-(7-((S*)-Cyclopropyl(4,4,4-trifluorobutanamido)methyl)imidazo[1,2-a]pyrimidin-2-yl)(4,4-difluorocyclohexyl)methyl)-1-isopropyl-1H-pyrazole-5-carboxamide] | 2600 nM | 2600 nM | 
Cc1c(C(=O)N[C@H](c2cn3ccc(C(NC(=O)CCC(F)(F)F)C4CC4)nc3n2)C2CCC(F)(F)CC2)cnn1CCC(F)(F)F (single isomer, unassigned) [Example 38, N—((S)-(7-((S*)-Cyclopropyl(4,4,4-trifluorobutanamido)methyl)imidazo[1,2-a]pyrimidin-2-yl)(4,4-difluorocyclohexyl)methyl)-5-methyl-1-(3,3,3-trifluoropropyl)-1H-pyrazole-4-carboxamide] | 930 nM | 890 nM | 
Cc1conc1C(=O)N[C@H](c1cn2ccc([C@H](NC(=O)CC3CC3(F)F)C3CC3)nc2n1)C1CCC(F)(F)CC1 (single isomer, unassigned) [Example 53, N—((S)-(7-((R)-Cyclopropyl(2-((S*)-2,2-difluorocyclopropyl)acetamido)methyl)imidazo[1,2-a]pyrimidin-2-yl)(4,4-difluorocyclohexyl)methyl)-4-methylisoxazole-3-carboxamide] |  | 490 nM | 2300 nM
O=C(CCC(F)(F)F)NC(c1ccn2cc([C@@H](NC(=O)c3ccn(CCC(F)(F)F)n3)C3CCC(F)(F)CC3)nc2n1)C1CC1 (single isomer, unassigned) [Example 43, N—((S)-(7-((R*)-Cyclopropyl(4,4,4-trifluorobutanamido)methyl)imidazo[1,2-a]pyrimidin-2-yl)(4,4-difluorocyclohexyl)methyl)-1-(3,3,3-trifluoropropyl)-1H-pyrazole-3-carboxamide] | ~20000 nM | 5700 nM | 
Cc1nonc1C(=O)N[C@H](c1cn2ccc([C@H](NC(=O)CC3CC3(F)F)C3CC3)nc2n1)C1CCC(F)(F)CC1 (single isomer, unassigned) [Example 52, N—((S)-(7-((R)-Cyclopropyl(2-((R*)-2,2-difluorocyclopropyl)acetamido)methyl)imidazo[1,2-a]pyrimidin-2-yl)(4,4-difluorocyclohexyl)methyl)-4-methyl-1,2,5-oxadiazole-3-carboxamide] | 2800 nM | 680 nM | 
O=C(CCC(F)(F)F)NC(c1ccn2cc([C@@H](NC(=O)c3ccn(CCC(F)(F)F)n3)C3CCC(F)(F)CC3)nc2n1)C1CC1 (single isomer, unassigned) [Example 42, N—((S)-(7-((S*)-Cyclopropyl(4,4,4-trifluorobutanamido)methyl)imidazo[1,2-a]pyrimidin-2-yl)(4,4-difluorocyclohexyl)methyl)-1-(3,3,3-trifluoropropyl)-1H-pyrazole-3-carboxamide] | 520 nM | 480 nM | 
Cn1nccc1C(=O)N[C@H](c1cn2ccc(C(NC(=O)CCC(F)(F)F)C3CC3)nc2n1)C1CCC(F)(F)CC1 (single isomer, unassigned) [Example 44, N—((S)-(7-((S*)-Cyclopropyl(4,4,4-trifluorobutanamido)methyl)imidazo[1,2-a]pyrimidin-2-yl)(4,4-difluorocyclohexyl)methyl)-1-methyl-1H-pyrazole-5-carboxamide] | 170 nM | 220 nM | 
O=C(CC1CC(F)(F)C1)N[C@@H](c1ccn2cc([C@@H](NC(=O)c3conc3C3CC3)C3CCC(F)(F)CC3)nc2n1)C1CC1 [Example 24, 3-Cyclopropyl-N—((S)-(7-((R)-cyclopropyl(2-(3,3-difluorocyclobutyl)acetamido)methyl)imidazo[1,2-a]pyrimidin-2-yl)(4,4-difluorocyclohexyl)methyl)isoxazole-4-carboxamide] |  | 180 nM | 180 nM
Cc1nonc1C(=O)N[C@H](c1cn2ccc([C@H](NC(=O)C[C@H](C)C(F)F)C3CC3)nc2n1)C1CCC(F)(F)CC1 [Example 60, N—((S)-(7-((R)-Cyclopropyl((S)-4,4-difluoro-3-methylbutanamido)methyl)imidazo[1,2-a]pyrimidin-2-yl)(4,4-difluorocyclohexyl)methyl)-4-methyl-1,2,5-oxadiazole-3-carboxamide] |  | 380 nM | 760 nM
